Assays:
[1] = tested on: multiple strains of MRSA; assay: MICs (minimal inhibitory concentrations) vs multiple strains of MRSA; assay type: cell-based, Staphylococcus aureus; details: no compound
[2] = tested on: strain 923; assay: Oxacillin MIC of strain 923; assay type: cell-based; details: Staphylococcus aureus; strain 923, cultured in the 96-well format
[3] = tested on: 923 containing pPvra-lux; assay: Oxacillin MIC of test strain in 96-well format; assay type: cell-based, Staphylococcus aureus
[4] = tested on: vraSR expression (Pvra-lux reporter in strain 923); assay: Validation of test strain: oxacillin induction of luminescence; assay type: cell-based, Staphylococcus aureus; details: luminescence of 923 Pvra-lux, 2 hours
[5] = tested on: strain 923; details: strain 923, CLSI guidelines; cited from earlier work

Cc1onc(-c2ccccc2)c1C(=O)N[C@@H]1C(=O)N2[C@@H]1SC(C)(C)[C@@H]2C(=O)O [oxacillin, reference compound]
Ox MIC alone ([1]; isolate 923, SCCmec IV, ST 8): 16 µg/mL
Ox MIC alone ([1]; isolate 1176, SCCmec II, ST 231): 32 µg/mL
Ox MIC alone ([1]; isolate 2169, SCCmec IV, ST 72): 16 µg/mL
Ox MIC alone ([1]; isolate 8004-01, SCCmec III, ST 239): 256 µg/mL
Ox MIC alone ([1]; isolate 8010-01, SCCmec IV, ST 8): 16 µg/mL
Ox MIC alone ([1]; isolate 8227-01, SCCmec IV, ST 87): 2 µg/mL
Ox MIC alone ([1]; isolate 11095, SCCmec II, ST 105): 256 µg/mL
Ox MIC alone ([1]; isolate 13113, SCCmec II, ST 5): 16 µg/mL
Ox MIC alone ([1]; isolate 13354, SCCmec IV, ST 5): 8 µg/mL
Ox MIC alone ([1]; isolate 14315, SCCmec IV, ST 1): 32 µg/mL
Ox MIC alone ([1]; isolate Q2461, SCCmec VT, ST 59): 8 µg/mL
MIC [2]: 8 µg/mL
MIC of oxacillin [3]: 5 µg/mL
minimum concentration sufficient for maximal vraSR expression [4]: 2 µg/mL
24-h oxacillin MIC [5]: 16 to 32 µg/mL

Reference: US9675592B2, “Methods and compositions for bacteria infections” (priority 2013, dated 2017)
